# Laboratory results as given in ChEMBL document CHEMBL3608269, “Triazole-Linked Glycolipids Enhance the Susceptibility of MRSA to β-Lactam Antibiotics” (ACS Med Chem Lett, 2015).
# The source made the active and inactive calls. The calls are words filed in the database; no cut-off is given here.
# Legend:
# Staphylococcus aureus [1] = assay: Potentiation of oxacillin-mediated antibacterial activity against methicillin-resistant Staphylococcus aureus R304 clinical isolate at 32 ug/ml after 20 to 24 hrs by CLSI method; assay type: functional
# Staphylococcus aureus [2] = assay: Potentiation of oxacillin-mediated antibacterial activity against methicillin-resistant Staphylococcus aureus R308 clinical isolate at 32 ug/ml after 20 to 24 hrs by CLSI method; assay type: functional
# Staphylococcus aureus [3] = assay: Potentiation of oxacillin-mediated antibacterial activity against methicillin-resistant Staphylococcus aureus ATCC 43300 assessed as appearance of rougher bacterial surface at 32 ug/ml after 4 hrs by scanning electron microscopic analysis; assay type: functional, organism-based
# Staphylococcus aureus [4] = assay: Potentiation of oxacillin-mediated antibacterial activity against methicillin-resistant Staphylococcus aureus R306 clinical isolate assessed as decrease in oxacillin MIC at 32 ug/ml after 20 to 24 hrs by CLSI method relative to control; assay type: functional
# Staphylococcus aureus [5] = assay: Potentiation of cefmetazole-mediated antibacterial activity against methicillin-resistant Staphylococcus aureus ATCC 43300 assessed as decrease in cefmetazole MIC at 32 ug/ml by checkerboard method relative to control; assay type: functional
# Staphylococcus aureus [6] = assay: Downregulation of mecA mRNA expression in methicillin-resistant Staphylococcus aureus ATCC 43300 at 32 ug/ml after 4 hrs by RT-PCR analysis in presence of oxacillin; assay type: functional, organism-based
# Staphylococcus aureus [7] = assay: Antibacterial activity against methicillin-resistant Staphylococcus aureus ATCC 43300 assessed as change in bacterial surface at 32 ug/ml after 4 hrs by scanning electron microscopic analysis; assay type: functional, organism-based
# Staphylococcus aureus [8] = assay: Potentiation of cefoxitin-mediated antibacterial activity against methicillin-resistant Staphylococcus aureus ATCC 43300 assessed as decrease in cefoxitin MIC at 32 ug/ml by checkerboard method relative to control; assay type: functional
# Staphylococcus aureus [9] = assay: Potentiation of oxacillin-mediated antibacterial activity against methicillin-resistant Staphylococcus aureus R50 clinical isolate assessed as decrease in oxacillin MIC at 16 ug/ml after 20 to 24 hrs by CLSI method relative to control; assay type: functional
# Staphylococcus aureus [10] = assay: Potentiation of cephalexin-mediated antibacterial activity against methicillin-resistant Staphylococcus aureus ATCC 43300 assessed as decrease in cephalexin MIC at 32 ug/ml by checkerboard method relative to control; assay type: functional
# Staphylococcus aureus [11] = assay: Potentiation of cefotaxime mediated antibacterial activity against methicillin-resistant Staphylococcus aureus ATCC 43300 assessed as decrease in cefotaxime MIC at 32 ug/ml by checkerboard method relative to control; assay type: functional
# Staphylococcus aureus [12] = assay: Potentiation of cefotiam-mediated antibacterial activity against methicillin-resistant Staphylococcus aureus ATCC 43300 assessed as decrease in cefotiam MIC at 32 ug/ml by checkerboard method relative to control; assay type: functional
# Staphylococcus aureus [13] = assay: Potentiation of cefoperazone mediated antibacterial activity against methicillin-resistant Staphylococcus aureus ATCC 43300 assessed as decrease in cefoperazone MIC at 32 ug/ml by checkerboard method relative to control; assay type: functional
# HEK293 = assay: Cytotoxicity against HEK293 cells assessed as cell viability at 8 to 128 ug/ml by MTS assay; assay type: cell-based; details: human
# Staphylococcus aureus [14] = assay: Potentiation of oxacillin-mediated antibacterial activity against methicillin-resistant Staphylococcus aureus ATCC 43300 assessed as growth inhibition at 32 ug/ml measured within 6 hrs by time kill assay; assay type: functional, organism-based
# Staphylococcus aureus [15] = assay: Potentiation of ceftazidime mediated antibacterial activity against methicillin-resistant Staphylococcus aureus ATCC 43300 assessed as decrease in ceftazidime MIC at 32 ug/ml by checkerboard method relative to control; assay type: functional
# Staphylococcus aureus [16] = assay: Potentiation of oxacillin-mediated antibacterial activity against methicillin-resistant Staphylococcus aureus R53 clinical isolate assessed as decrease in oxacillin MIC at 16 ug/ml after 20 to 24 hrs by CLSI method relative to control; assay type: functional
# Staphylococcus aureus [17] = assay: Cellular uptake in methicillin-resistant Staphylococcus aureus ATCC 43300 by HPLC analysis in presence of oxacillin; assay type: ADME, organism-based; details: in vivo
# Staphylococcus aureus [18] = assay: Potentiation of cephamandole-mediated antibacterial activity against methicillin-resistant Staphylococcus aureus ATCC 43300 assessed as decrease in cephamandole MIC at 32 ug/ml by checkerboard method relative to control; assay type: functional
# Staphylococcus aureus [19] = assay: Potentiation of oxacillin-mediated antibacterial activity against methicillin-resistant Staphylococcus aureus R313 clinical isolate assessed as decrease in oxacillin MIC at 32 ug/ml after 20 to 24 hrs by CLSI method relative to control; assay type: functional
# Staphylococcus aureus [20] = assay: Antibacterial activity against methicillin-resistant Staphylococcus aureus ATCC 43300 after 20 to 24 hrs by CLSI method; assay type: functional
# Staphylococcus aureus [21] = assay: Potentiation of oxacillin-mediated antibacterial activity against methicillin-resistant Staphylococcus aureus R15 clinical isolate assessed as decrease in oxacillin MIC at 32 ug/ml after 20 to 24 hrs by CLSI method relative to control; assay type: functional
# Staphylococcus aureus [22] = assay: Potentiation of oxacillin-mediated antibacterial activity against methicillin-resistant Staphylococcus aureus R16 clinical isolate assessed as decrease in oxacillin MIC at 32 ug/ml after 20 to 24 hrs by CLSI method relative to control; assay type: functional
# Staphylococcus aureus [23] = assay: Potentiation of oxacillin-mediated antibacterial activity against methicillin-resistant Staphylococcus aureus ATCC 43300 assessed as decrease in oxacillin MIC at 32 ug/ml by checkerboard method relative to control; assay type: functional
# Staphylococcus aureus [24] = assay: Potentiation of carbenicillin-mediated antibacterial activity against methicillin-resistant Staphylococcus aureus ATCC 43300 assessed as decrease in carbenicillin MIC at 32 ug/ml by checkerboard method relative to control; assay type: functional
# Staphylococcus aureus [25] = assay: Potentiation of oxacillin-mediated antibacterial activity against methicillin-resistant Staphylococcus aureus R302 clinical isolate assessed as decrease in oxacillin MIC at 32 ug/ml after 20 to 24 hrs by CLSI method relative to control; assay type: functional
# Staphylococcus aureus [26] = assay: Potentiation of cephalothin-mediated antibacterial activity against methicillin-resistant Staphylococcus aureus ATCC 43300 assessed as decrease in cephalothin MIC at 32 ug/ml by checkerboard method relative to control; assay type: functional
# Staphylococcus aureus [27] = assay: Potentiation of oxacillin-mediated antibacterial activity against methicillin-resistant Staphylococcus aureus R314 clinical isolate assessed as decrease in oxacillin MIC at 32 ug/ml after 20 to 24 hrs by CLSI method relative to control; assay type: functional
# Staphylococcus aureus [28] = assay: Downregulation of mecA mRNA expression in methicillin-resistant Staphylococcus aureus ATCC 43300 at 32 ug/ml after 4 hrs by RT-PCR analysis; assay type: functional, organism-based
# Staphylococcus aureus [29] = assay: Potentiation of oxacillin-mediated antibacterial activity against methicillin-resistant Staphylococcus aureus R50 clinical isolate at 16 ug/ml after 20 to 24 hrs by CLSI method; assay type: functional
# Staphylococcus aureus [30] = assay: Potentiation of oxacillin-mediated antibacterial activity against methicillin-resistant Staphylococcus aureus ATCC 43300 at 32 ug/ml after 20 to 24 hrs by CLSI method; assay type: functional
# Staphylococcus aureus [31] = assay: Potentiation of oxacillin-mediated antibacterial activity against methicillin-resistant Staphylococcus aureus R15 clinical isolate at 32 ug/ml after 20 to 24 hrs by CLSI method; assay type: functional
# Staphylococcus aureus [32] = assay: Potentiation of ceftriaxone mediated antibacterial activity against methicillin-resistant Staphylococcus aureus ATCC 43300 assessed as decrease in ceftriaxone MIC at 32 ug/ml by checkerboard method relative to control; assay type: functional
compound,measurement,setting,value
CCCCCCCCCCCCOCc1cn([C@@H]2O[C@H](CO)[C@@H](O)[C@H](O)[C@H]2O)nn1,MIC,Staphylococcus aureus [1],256 µg/mL
same,MIC,Staphylococcus aureus [2],256 µg/mL
same,Activity,Staphylococcus aureus [3],Active
same,MIC,Staphylococcus aureus [4],16 µg/mL
same,fold change (FC),Staphylococcus aureus [5],<=256
same,Activity,Staphylococcus aureus [6],Active
same,Activity,Staphylococcus aureus [7],inactive
same,fold change (FC),Staphylococcus aureus [8],<=256
same,MIC,Staphylococcus aureus [9],8 µg/mL
same,fold change (FC),Staphylococcus aureus [10],<=256
same,fold change (FC),Staphylococcus aureus [11],<=256
same,fold change (FC),Staphylococcus aureus [12],<=256
same,fold change (FC),Staphylococcus aureus [13],<=256
same,Activity,HEK293,Non-toxic
same,growth inhibition (GI),Staphylococcus aureus [14],Active
same,fold change (FC),Staphylococcus aureus [15],<=256
same,MIC,Staphylococcus aureus [16],8 µg/mL
same,Drug uptake,Staphylococcus aureus [17],Active
same,fold change (FC),Staphylococcus aureus [18],<=256
same,MIC,Staphylococcus aureus [19],1 µg/mL
same,MIC,Staphylococcus aureus [20],256 µg/mL
same,MIC,Staphylococcus aureus [21],2 µg/mL
same,MIC,Staphylococcus aureus [22],4 µg/mL
same,fold change (FC),Staphylococcus aureus [23],<=256
same,fold change (FC),Staphylococcus aureus [24],<=256
same,MIC,Staphylococcus aureus [25],4 µg/mL
same,fold change (FC),Staphylococcus aureus [26],<=256
same,MIC,Staphylococcus aureus [27],32 µg/mL
same,Activity,Staphylococcus aureus [28],Active
same,MIC,Staphylococcus aureus [29],< 1 µg/mL
same,MIC,Staphylococcus aureus [30],1 µg/mL
same,MIC,Staphylococcus aureus [31],64 µg/mL
same,fold change (FC),Staphylococcus aureus [32],<=256
